From PubChem BioAssay AID1189 (EPA DSSTox, 2008)
Active and inactive are the calls of the source.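 Rule for the calls: active = a tumor-causing dose value with its tumor site reported for any sex and species group of a rodent or other animal cancer study; inconclusive = only studies judged inadequate by the national testing program; inactive = tested in at least one study, none positive.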

Assay: DSSTox (CPDBAS) Carcinogenic Potency Database Summary SingleCellCall Results
Conditions: animal chronic carcinogenicity bioassays, CPDB summary call
Outline: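 Literature-derived summary: each substance receives an overall carcinogenic/non-carcinogenic category drawn from long-term bioassays in rats, mice, hamsters, dogs or primates, using the most positive sex-species experiment and minimal evidence criteria.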

SMILES: Cc1cccn2c1nc1ccc(N)nc12
- outcome: active

SMILES: O=C(NCC1CCCCN1)c1cc(OCC(F)(F)F)ccc1OCC(F)(F)F (stereo not drawn)
- outcome: inactive

SMILES: CN(Cc1cnc2nc(N)nc(N)c2n1)c1ccc(C(=O)N[C@@H](CCC(=O)O)C(=O)O)cc1
- outcome: inactive

SMILES: C=CCc1ccc(OC)c(OC)c1
- outcome: active; inactive

SMILES: Nc1ccccc1-c1ccccc1
- outcome: active; inactive

SMILES: O=NN1CCSCC1
- outcome: active

SMILES: C[C@@H]1C[C@H](C)CN(S(=O)(=O)c2ccc(Cl)c(C(=O)O)c2)C1
- outcome: active

SMILES: C=CN1CCCC1=O
- outcome: active; inactive

SMILES: CCCCCCCC(=O)OCC(COC(=O)CCCCCCC)OC(=O)CCCCCCC
- outcome: active

SMILES: CC1CN(/N=C/c2ccc([N+](=O)[O-])o2)C(=O)N1 (stereo not drawn)
- outcome: active

SMILES: CC(C)CN(N=O)C(N)=O
- outcome: active

SMILES: c1ccc2c(c1)[nH]c1ccccc12
- outcome: active

SMILES: CCN(CC)C(=O)Nc1ccc(OCC(O)CNC(C)(C)C)c(C(C)=O)c1 (stereo not drawn)
- outcome: inactive; active

SMILES: CC(N)Cc1ccccc1 (stereo not drawn)
- outcome: inactive

SMILES: O=C(O)CCCC/C=C(\c1ccccc1)c1cccnc1
- outcome: inactive; active

SMILES: CN(N=O)c1ccc(N=O)cc1
- outcome: active

SMILES: C=CC1=C(C)C2=CC3=NC(=C(CC(=O)[O-])C4=NC(=C(C)C4=C([O-])[O-])C=c4[n-]c(c(C)c4CC)=CC1=N2)[C@@H](CCC(=O)[O-])[C@@H]3C.[Cu+2].[Na+].[Na+].[Na+]
- outcome: inactive

SMILES: Cn1c(N)nc2c3cccnc3ccc21
- outcome: active; inactive

SMILES: O=[Se]=O
- outcome: inactive

SMILES: O=P(O)(OCC(Br)CBr)OCC(Br)CBr (stereo not drawn)
- outcome: active; inactive

SMILES: CN(C)c1ccccc1
- outcome: active

SMILES: CN(C)C(=S)SC(=S)N(C)C
- outcome: inactive

SMILES: O=S(=O)([O-])[O-].[O]=[V+2]
- outcome: inactive

SMILES: Cc1c(-c2cnccn2)ssc1=S
- outcome: inactive; active

SMILES: Nc1ccc([N+](=O)[O-])cc1
- outcome: inactive; active

SMILES: NC(=O)Cc1c([O-])on[n+]1Cc1ccccc1
- outcome: active; inactive

SMILES: COC(=O)[C@H]1[C@H]2C[C@@H]3c4[nH]c5ccccc5c4CCN3C[C@H]2C[C@@H](OC(=O)c2cc(OC)c(OC)c(OC)c2)[C@@H]1OC
- outcome: inactive

SMILES: CCN(CC)C(=O)c1cccc(C)c1
- outcome: inactive

SMILES: C=C1CC[C@H](O)C/C1=C/C=C1\CCC[C@]2(C)[C@@H]([C@H](C)/C=C/[C@H](C)C(C)C)CC[C@@H]12
- outcome: inactive

SMILES: CCN(C#N)N=O
- outcome: active

SMILES: OCCOCCO
- outcome: active

SMILES: NCC(=O)O
- outcome: active

SMILES: CC(O)C(=O)O (stereo not drawn)
- outcome: inactive

SMILES: ClCOCCCCCCOCCl
- outcome: inactive

SMILES: CC12CCC(CC1)C(C)(C)O2
- outcome: inactive

SMILES: ClC1(Cl)C2(Cl)C3C4(Cl)C1(Cl)C1(Cl)C4(Cl)C(Cl)(Cl)C3(Cl)C21Cl (stereo not drawn)
- outcome: active; inactive

SMILES: Cc1ccc([N+](=O)[O-])cc1N
- outcome: active

SMILES: Cn1c(=O)c2c(ncn2C)n(C)c1=O
- outcome: inactive

SMILES: O=[As]O
- outcome: inactive

SMILES: Nc1cnn([C@@H]2O[C@H](CO)[C@@H](O)[C@H]2O)c(=O)n1
- outcome: inactive

SMILES: Nc1nnc(-c2ccc([N+](=O)[O-])o2)o1
- outcome: active

SMILES: CC1CN(N=O)CC(C)O1 (stereo not drawn)
- outcome: active

SMILES: Cc1ccc2c(-c3cccc(O)c3)nc(=O)n(C(C)C)c2c1
- outcome: inactive

SMILES: C[C@@H]1C/C=C/C=C/C=C/C=C/[C@H](O[C@@H]2O[C@H](C)[C@@H](O)[C@H](N)[C@@H]2O)C[C@@H]2O[C@](O)(C[C@@H](O)C[C@H]3O[C@@H]3/C=C/C(=O)O1)C[C@H](O)[C@H]2C(=O)O
- outcome: inactive

SMILES: CN(N=O)C(=O)N[C@@H]1[C@@H](O)[C@H](O)[C@@H](CO)O[C@@H]1O
- outcome: active

SMILES: CCCOC(=O)C1c2cc3c(cc2CC(C)C1C(=O)OCCC)OCO3 (stereo not drawn)
- outcome: inactive

SMILES: Cc1cccc(N=Nc2ccc(N(C)C)cc2)c1
- outcome: active

SMILES: Clc1cccc(-c2ccc(Cl)c(Cl)c2Cl)c1Cl
- outcome: active
